Series [1] is described as follows: Lethal dose 50% (inhibition of growth of normal cells). The series is classed as cell-based. Conditions: monkey; concentration inhibiting 50% of growth of normal VERO cells; no unit in table, test concentrations given in microgrammes/ml; read-out: DL50 (the source's name). The procedure:
On a par ailleurs déterminé la dose léthale 50% (DL50) la dose efficace 90% et 99% (DE90 et DE99) et l'indice thérapeutique 90 et 99 (IT90 et IT99) en utilisant les méthodes suivantes :
Les composés ont été préparés à la dose 1 mg/ml dans unvolume maximal de 0,1 ml de diméthyl- sulfoxyde et addition jusqu'à 12 ml d'un milieu de maintenance M-2. Les dilutions ont été effectuées avec le milieu de maintenance M-2.
La DL50 est la concentration à laquelle 50% de la croissance des cellules normales est inhibée. Pour cette détermination on a utilisé 5.10^5 cellules VERO en suspension dans 10 ml de milieu E199 additionné de 6% de sérum de veau (CS) et de gentamycine(20 microgrammes/ml). Les composés ont été ajoutés pour obtenir des concentrations finales de 200;100;-75;50;25;10;5;3;2;1;0,1 et 0,01 microgrammes/ml.

For another series, the system named is virus (Polio type I). Nature of the series: microbe, parasite or virus in culture. The series is classed as cell-based. Conditions: for EC90 / EC99: Vero; for EC90: read-out: DE90; for EC99: read-out: DE 99; for IT90: therapeutic index = DL50 divided by DE90; for IT99: therapeutic index = DL50 divided by DE99.

In brackets after ≈: the same amount, converted by molar mass.

Consider `COc1c(-c2ccc(Cl)cc2)oc2cc(C)ccc2c1=O` [3-méthoxy-4'-chloro-7-méthylflavone], for which the CC50 in series [1] came out at 10 µg/mL (≈ 33.3 µM). Also, in the series on virus (Polio type I), the EC90 stood at 10 µg/mL (≈ 33.3 µM), the EC99 was found to be 20 µg/mL, the IT90 was found to be 1 and the IT99 amounted to 0.5.
With `COc1c(O)cc2oc(-c3ccc(O)cc3)c(OC)c(=O)c2c1O` [3,6-diméthoxy-4',5,7-trihydroxyflavone], the CC50 in series [1] is 20 µg/mL (≈ 60.6 µM). In addition, in the series on virus (Polio type I), the EC90 was determined as 0.5 µg/mL (≈ 1.51 µM), the EC99 is 1 µg/mL, the IT90 stood at 40 and the IT99 is listed as 20.
The like results for `COc1c(-c2ccc(O)cc2)oc2ccc(C)cc2c1=O` [3-méthoxy-4'-hydroxy-6-methylflavone] were, in that order, 75 µg/mL (≈ 266 µM), 1 µg/mL (≈ 3.54 µM), 5 µg/mL, 75 and 15.
`COc1cc2oc(-c3ccc(O)cc3)c(OC)c(=O)c2c(O)c1OC` [3,6,7-triméthoxy-4',5-dihydroxyflavone]: the CC50 in series [1] was 100 µg/mL (≈ 290 µM). Moreover, in the series on virus (Polio type I), the EC90 stood at 0.5 µg/mL (≈ 1.45 µM), the EC99 was determined as 5 µg/mL, the IT90 stood at 200 and the IT99 is on record as 20.
For `COc1ccc2oc(-c3ccc(O)cc3)c(OC)c(=O)c2c1` [3,6-diméthoxy-4'-hydroxyflavone], in series [1], the CC50 was 200 µg/mL (≈ 670 µM). Also, in the series with virus (Polio type I), the EC90 came to 7 µg/mL (≈ 23.5 µM), the EC99 was 25 µg/mL, the IT90 is reported as 29 and the IT99 turned out to be 8.
Turning to `COc1c(-c2ccc(O)cc2)oc2cc(F)ccc2c1=O` [3-méthoxy-4'-hydroxy-7-fluoroflavone], the CC50 in series [1] stood at 20 µg/mL (≈ 69.9 µM). Besides, in the series with virus (Polio type I), the EC90 came out at 1 µg/mL (≈ 3.49 µM), the EC99 was 6 µg/mL, the IT90 was 20 and the IT99 is given as 3,2.
As for `COc1ccc(-c2oc3c(OC)c(OC)c(OC)c(OC)c3c(=O)c2OC)cc1OC` [3,3',4',5,6,7,8-heptaméthoxyflavone], in series [1], the CC50 is 200 µg/mL (≈ 463 µM). Besides, in the series on virus (Polio type I), the EC90 worked out at 20 µg/mL (≈ 46.3 µM), the EC99 came to 25 µg/mL, the IT90 turned out to be 10 and the IT99 amounted to 8.
On to `COc1c(-c2ccc(O)cc2)oc2cc(Cl)ccc2c1=O` [3-méthoxy-4'-hydroxy-7-chloroflavone], for which, in series [1], the CC50 was found to be 100 µg/mL (≈ 330 µM). In addition, in the series on virus (Polio type I), the EC90 is 5 µg/mL (≈ 16.5 µM), the EC99 is 7 µg/mL, the IT90 stood at 20 and the IT99 is given as 14,3.
Turning to `COc1c(-c2ccc(O)cc2)oc2ccccc2c1=O` [3-méthoxy-4'-hydroxyflavone], the CC50 in series [1] was found to be 10 µg/mL (≈ 37.3 µM). For the same compound, in the series on virus (Polio type I), the EC90 turned out to be 3 µg/mL (≈ 11.2 µM), the EC99 turned out to be 6 µg/mL, the IT90 is 3,3 and the IT99 came out at 1.66.
With `COc1c(-c2ccc(O)cc2)oc2ccc(Cl)cc2c1=O` [3-méthoxy-4'-hydroxy-6-chloroflavone], the CC50 in series [1] came out at 100 µg/mL (≈ 330 µM). In the series on virus (Polio type I), the EC90 was 2 µg/mL (≈ 6.61 µM), the EC99 was 6 µg/mL, the IT90 was 50 and the IT99 was 17.
In the case of `COc1c(-c2ccc(O)cc2)oc2c(OC)cccc2c1=O` [3,8-diméthoxy-4'-hydroxyflavone], the CC50 in series [1] turned out to be 25 µg/mL (≈ 83.8 µM). Also, in the series with virus (Polio type I), the EC90 was found to be 10 µg/mL (≈ 33.5 µM), the EC99 came out at 20 µg/mL, the IT90 is on record as 2,5 and the IT99 is 1,2.
As to `COc1ccc(-c2oc3ccc(O)cc3c(=O)c2OC)cc1` [3,4'-diméthoxy-6-hydroxyflavone], the CC50 in series [1] stood at 200 µg/mL (≈ 670 µM). In the series with virus (Polio type I), the EC90 was determined as 100 µg/mL (≈ 335 µM), the EC99 is 200 µg/mL, the IT90 is 2 and the IT99 is listed as 1.
For `COc1ccc(-c2oc3cc(OC)c(OC)c(OC)c3c(=O)c2OC)cc1OC` [3,3',4',5,6,7-hexaméthoxyflavone], the CC50 in series [1] came to 200 µg/mL (≈ 497 µM). Moreover, in the series on virus (Polio type I), the EC90 worked out at 100 µg/mL (≈ 249 µM), the EC99 amounted to 200 µg/mL, the IT90 is recorded as 2 and the IT99 is reported as 1.
`COc1ccc(-c2oc3ccc(OC)cc3c(=O)c2OC)cc1` [3,4',6-triméthoxyflavone]: the CC50 in series [1] was 100 µg/mL (≈ 320 µM). In addition, in the series with virus (Polio type I), the EC90 turned out to be 2 µg/mL (≈ 6.4 µM), the EC99 came out at 50 µg/mL, the IT90 was 50 and the IT99 is on record as 2.
With `COc1ccc(-c2oc3cc(O)c(OC)c(O)c3c(=O)c2OC)cc1` [3,4',6-triméthoxy-5,7-dihydroxyflavone], the CC50 in series [1] was determined as 50 µg/mL (≈ 145 µM). In addition, in the series with virus (Polio type I), the EC90 came to 1 µg/mL (≈ 2.9 µM), the EC99 was 10 µg/mL, the IT90 was found to be 50 and the IT99 is on record as 5.
The like results for `COc1c(-c2ccc(O)cc2)oc2cc(C)ccc2c1=O` [3-méthoxy-4'-hydroxy-7-méthylflavone] were, in that order, 25 µg/mL (≈ 88.6 µM), 0.5 µg/mL (≈ 1.77 µM), 2 µg/mL, 50 and 12,5.
`COc1c(-c2ccc(O)cc2)oc2cccc(OC)c2c1=O` [3,5-diméthoxy-4'-hydroxyflavone]: the CC50 in series [1] is 150 µg/mL (≈ 503 µM). In the series with virus (Polio type I), the EC90 amounted to 5 µg/mL (≈ 16.8 µM), the EC99 turned out to be 10 µg/mL, the IT90 is 30 and the IT99 came out at 15.
The like results for `COc1c(-c2ccc(OCc3ccccc3)cc2)oc2ccccc2c1=O` [3-méthoxy-4'-benzyloxyflavone] were, in that order, 100 µg/mL (≈ 279 µM), 30 µg/mL (≈ 83.7 µM), 100 µg/mL, 3,3 and 1.
For the compound `COc1ccc(-c2oc3c(OC)c(OC)c(OC)c(O)c3c(=O)c2OC)cc1OC` [3,3',4',6,7,8-hexaméthoxy-5-hydroxyflavone], the CC50 in series [1] amounted to 200 µg/mL (≈ 478 µM). Also, in the series with virus (Polio type I), the EC90 was found to be 20 µg/mL (≈ 47.8 µM), the EC99 was 25 µg/mL, the IT90 came out at 10 and the IT99 came to 8.
The like results for `COc1ccc2c(=O)c(OC)c(-c3ccc(O)cc3)oc2c1` [3,7-diméthoxy-4'-hydroxyflavone] were, in that order, 25 µg/mL (≈ 83.8 µM), 1 µg/mL (≈ 3.35 µM), 5 µg/mL, 25 and 5.
As for `COc1c(-c2ccc(O)cc2)oc2ccc(O)cc2c1=O` [3-méthoxy-4',6-dihydroxyflavone], the CC50 in series [1] is 3 µg/mL (≈ 10.6 µM). Also, in the series with virus (Polio type I), the EC90 is 0.5 µg/mL (≈ 1.76 µM), the EC99 stood at 2 µg/mL, the IT90 worked out at 6 and the IT99 was 1,5.
